In US10620188B2, “Using impedance-based cell response profiling to identify putative inhibitors for oncogene addicted targets or pathways” (ACEA Biosciences, Inc., priority 2002, dated 2020):

Tests used:
SH-SY5Y = assay: Impedance-based TCRP of SH-SY5Y cells, mutant ALK (F1174L); assay type: cell-based, human; conditions: 10 uM
Description: The cell index (CI) was normalized at time of compound addition. […] DMSO was served as solvent control.
The cell index was normalized at time of compound addition. DMSO at the same dose was served as solvent control.
(§4) The cell index (CI) was normalized at time of compound addition.

SK-MEL-28 = assay: Impedance-based TCRP of SK-MEL-28, b-Raf (V600E) addicted melanoma cells; assay type: cell-based, human; conditions: SK-MEL-28; increasing concentrations
Description: (A) The impedance-based time-dependent cellular profiles (TCRPs) of SK-MEL28 in response to b-Raf inhibitor on xCelligence system (Roche/ACEA). […] The cell index (CI) was normalized at time of the compound addition. At the indicated time point of treatment (arrow), increasing concentrations of b-Raf inhibitor (from 0 to 10 uM) were added to the cells and the cell response was monitored. […] (B) EC50 of b-Raf derived from impedance-based TCRP.
as §4
Cell lines. […] The time-dependent cell response profiles (TCRP) were monitored prior to and after the compound addition using the xCelligence system (ACEA Biosciences/Roche applied sciences).
(§5) Kinase inhibitors including b-Raf inhibitors at different concentrations in DMSO were added into wells following the incubation period. The cell status was monitored prior to and after the compound addition using xCelligence system (Roche applied sciences). […] The Cell index was normalized against the cell index values at a time point just before compound addition.

H1993 = assay: Impedance-based TCRP of Met addicted H1993 cells (xCelligence); assay type: cell-based, human; conditions: H1993; increasing concentrations
Description: Cells were treated with ACEA348 (0-10 uM) for 30 min.
as §4
The time-dependent cell response profiles (TCRP) were monitored prior to and after the compound addition using the xCelligence system (ACEA Biosciences/Roche applied sciences).
The Cell index was normalized against the cell index values at a time point just before compound addition. […] EC50 and IC50 of the Met inhibitor can be derived from the CI versus the corresponding log concentration of the inhibitor.

Colo-205 = assay: Impedance-based TCRP of Colo-205 cells, b-Raf (V600E); assay type: cell-based, human; conditions: increasing concentrations
Description: (A) The impedance-based time-dependent cellular profiles (TCRPs) of colo205 in response to b-Raf inhibitor on xCelligence system (Roche/ACEA). […] The cell index (CI) was normalized at time of the compound addition. At the indicated time point of treatment (arrow), increasing concentrations of b-Raf inhibitor (from 0 to 10 uM) were added to the cells and the cell response was monitored. […] (B) IC50 of b-Raf derived from impedance-based TCRP.
as §4, §5

C6 = assay: Impedance-based TCRP of PDGFR addicted C6 glioma cells; assay type: cell-based, rat; conditions: C6; increasing concentrations
Description: as §4
Kinase inhibitors including PDGFR inhibitors at different concentrations in DMSO were added into wells following the incubation period. The cell status was monitored prior to and after the compound addition using xCelligence system (Roche applied sciences). […] The Cell index was normalized against the cell index values at a time point just before compound addition.
IC50 of the PDGFR inhibitor can be derived from the CI versus the corresponding log concentration of the inhibitor.

A549 = assay: Impedance-based TCRP of A549 cells (wild-type p110α) to PI3K inhibitor; assay type: cell-based, human; conditions: A549 expressing wild-type p110α; serum starved 5 hour
Description: (§1) Cells were serum starved for 5 hour. The cell index was normalized at time of compound addition. At the indicated time point of treatment, increasing concentrations of PI103 (0-10 uM) was added to the cells and the cell responses were monitored.
(§2) Cell lines. A mouse fibroblast 10T1/2 expressing the cell-surface receptor TVA, which is specific for subgroup-A avian retroviruses was used. The cells were transformed by infection with human p110α (H1047R)-expressing avian retrovirus and are referred to as 10T1/2 tva-H1047R. A549 is a human lung cancer cell line expressing wild-type p110α. T47D and BT20 are human breast cancer cell lines expressing mutant p110α (T47D) and p110α (P539R/H1047R), respectively.
(§3) To test if the characteristic TCRP is specific to PI3K inhibition, we also test the cell responses in several other cell lines (FIG. 35). […] Such characteristic TCRP could be used for identifying or screening unknown biologically active agents which may act as PI3K inhibitors.

10T1/2 tva-H1047R = assay: Impedance-based TCRP of 10T1/2 tva-H1047R cells expressing human p110α (H1047R); assay type: cell-based, mouse
Description: as §4
A mouse fibroblast 10T1/2 expressing the cell-surface receptor TVA, which is specific for subgroup-A avian retroviruses was used. […] A549 is a human lung cancer cell line expressing wild-type p110α. T47D and BT20 are human breast cancer cell lines expressing mutant p110α (T47D) and p110α (P539R/H1047R), respectively.
(§6) Then the normal growth medium (10% FBS) was exchanged with medium containing 0% FBS. The cells were incubated for additional 5 hours before compound treatment. A PI3K inhibitor (PI103) at different concentrations in DMSO was added into wells following the incubation period. The cell status was monitored prior to and after the compound addition using xCelligence system (Roche applied sciences). […] Cell index of the cells treated with solvent DMSO control was used as baseline. The Cell index was normalized against the cell index values at a time point just before compound addition.

BT20 = assay: Impedance-based TCRP of BT20 cells (p110α P539R/H1047R) to PI3K inhibitor; assay type: cell-based; conditions: Homo sapiens, BT-20, 10 min
Description: as §1, §2, §3

10T1/2 tva = assay: Impedance-based TCRP of control cell line 10T1/2 tva; design: species or system mouse; conditions: 10T1/2 tva control cell line; from 0 to 10 uM
Description: as §4, §6

AKT phosphorylation = assay: Western analysis of PI3K downstream signal in 10T1/2 tva-H1047R and 10T1/2 tva; assay type: cell-based, mouse; conditions: 10 uM; treated for 2 hours; serum starved 5 hours
Description: Cells were lysed and subject to Western analyses. […] Equal intensity of GAPDH bands indicated equal protein loading.

T47D = assay: Impedance-based TCRP of T47D cells (mutant p110α) to PI3K inhibitor; assay type: cell-based; conditions: Homo sapiens, 10 min
Description: as §1, §2, §3

RBL-2H3 PDGFRβ = assay: Impedance response of engineered RBL-2H3 PDGFRβ cells to PDGF stimulation and PDGFR inhibition; assay type: cell-based, rat; conditions: serum starved 2 hour, peak normalized CI response
Description: RBL-2H3 PDGFRβ cells were seeded at 20,000 cells per well of 96-well E-plate (Roche/ACEA). The cells were continuously monitored using the xCelligence system (Roche/ACEA). […] The cell index (CI) was normalized at time of compound addition. Time zero depicts the time point of treatment. […] The cell index (CI) was normalized at time of compound addition. Time zero depicts the time point of treatment.

RBL-2H3 = assay: Impedance response of parental RBL-2H3 cells; assay type: cell-based, rat; conditions: RBL-2H3 parental
Description: Cell lines. RBL2H3-PDGFR is engineered rat basophilic cell line that expresses exogenous PDGFRβ. RBL2H3 is the parental cell line.
RBL2H3-PDGFR overexpressing PDGFRβ was constructed by Lenti viral transduction of RBL2H3. Both RBL2H3-PDGFR and RBL2H3 cells were seeded at 20,000 cells per well of 96-well E-plate (Roche/ACEA). The cells were continuously monitored using the xCelligence system (Roche/ACEA).
Cells were serum starved for 2 hour, then stimulated by addition of PDGF BB (0-50 ng/ml). […] Plotting the peak normalized CI response versus the corresponding log concentration allows for calculation of the EC50 (1.07 ng.mL) of PDGF acting on PDGFR in the engineered cell line.
This dose-dependent decease in the CI is specific to PDGFR inhibition.

COc1cc2ncnc(Nc3ccc(F)c(Cl)c3)c2cc1OCCCN1CCOCC1 [Gefitinib]
TCRP (Cell Index response) (SH-SY5Y): None trigged a TCRP representative to that trigger by ALK inhibitors | TCRP (Cell Index response) (SK-MEL-28): did not affect CI changes that are significantly different from the negative control | TCRP (Cell Index response) (H1993): None of these inhibitors induced a TCRP similar to PF2341006 | TCRP (Cell Index response, cell growth) (Colo-205): did not inhibit Colo205 cell growth | TCRP (Cell Index response) (C6): did not affect CI changes that are significantly different from the negative control

Oc1cccc(-c2nc(N3CCOCC3)c3oc4ncccc4c3n2)c1 [PI103]
TCRP (Cell Index response) (A549): did not show clear dose response | TCRP (Cell Index response) (10T1/2 tva-H1047R; 10T1/2 tva-H1047R in the presence of siRNA targeting human p110α, within 10 min of compound addition): no sharp decrease | TCRP (Cell Index response) (10T1/2 tva-H1047R; 10T1/2 tva-H1047R, serum starved, from 0 to 10 uM): immediate decrease | IC50 (10T1/2 tva-H1047R; Mus musculus, 5 h, read-out: IC50 (TCRP)): 89 nM | IC50 (BT20): 165 nM | TCRP (Cell Index response) (10T1/2 tva): did not show a clear dose response | PI3K downstream signal (AKT phosphorylation), Western (AKT phosphorylation): efficiently inhibited | IC50 (T47D): 126 nM

PDGF: PDGF BB, ligand used to stimulate PDGFRβ
EC50 of PDGF acting on PDGFR (RBL-2H3 PDGFRβ): 1.07 ng·mL | Cell Index response of parental cell line (RBL-2H3): did not show any response
